One compound from publication PMC6215257, “Erianin against Staphylococcus aureus Infection via Inhibiting Sortase A” (Toxins, 2018) can be followed below.

For test [1], the target named is T1, V193A-SrtA (Sortase A) (Staphylococcus aureus, UniProt Q2FV99, V193A).
T1 construct: residues 60–206 (pG-srtAΔN59, pGEX-6P-1)
Nature of the test: fluorescence quenching binding constant (KA); FRET inhibition reduced vs WT.

Test [2] deals with T2, Sortase A (srtA) (Staphylococcus aureus, UniProt Q2FV99).
T2 construct: residues 60–206 (pG-srtAΔN59, pGEX-6P-1)
Nature of the test: FRET peptide cleavage assay with purified SrtA; binding also by fluorescence quenching (KA […] L/mol). It is filed as biochemical.

For test [3], the target named is T3, R197A-SrtA (Sortase A) (Staphylococcus aureus, UniProt Q2FV99, R197A).
T3 construct: residues 60–206 (pG-srtAΔN59, pGEX-6P-1)
Nature of the test: fluorescence quenching binding constant (KA); FRET inhibition reduced vs WT.

As to `COc1ccc(CCc2cc(OC)c(OC)c(OC)c2)cc1O` [erianin], the Kd in test [1] was 2280 nM; in test [3], 2530 nM. In test [2], this compound yielded a half-maximal inhibitory concentration (IC50) of 65700 ± 7200 nM.

As usually defined, the Kd is the constant that tells how readily two partners part at equilibrium. Usually IC50 stands for the point on the concentration scale where inhibition reaches its midpoint. A high value points to weaker potency in that assay.
